Data: patent US20200179528A9, “IMMUNE CELL-TARGETED PARTICLES” (Dana-Farber Cancer Institute, Inc., priority 2015, published 2020)

Experiments:
[1] = Loading of other small molecules into the nanoparticles and their release; assay type: physicochemical; settings: 10%, 20% or 40% small molecule
Description: The formulation procedure used is the same as that used in FIG. 1. Release was measured by absorbance maximum at 280 nm, 300 nm, and 340 nm, respectively. 22.5 mg of PLGA and 7.5 mg of PLGA-PEG were used along with 3 mg (10%), 6 mg (20%), or 12 mg (40%) of small molecule. Note that the release profile can be delayed by loading less drug. Note that the encapsulation efficiency can increase (epacadostat) or decrease (resiquimod, ruxolitinib) by increasing initial loading amount.

CD8+ T cells = assay: CD8+ T cell activation with anti-CD3/CD28 beads in presence of TGFβ1 (proliferation, granzyme B, IFNγ); assay type: cell-based, mouse
Description: FIG. 34. […] Intracellular granzyme B expression was assessed by flow cytometry, n=3±SD. […] Fold change of interferon-γ (IFNγ) was measured by ELISA, n=4±SEM.
In vitro binding of nanoparticles was assessed after incubation of 250,000 enriched T cells with fluorescently (DiD, Life Technologies) labelled nanoparticles at different concentrations for 30 min at 37° C. After the incubation, T cells were washed 3 to 5 times in PBS and directly assessed by flow cytometry for DiD fluorescence. T cells isolated from OT-I Rag^−/− mice were activated by Dynabeads Mouse T-Activator CD3/CD28 (Thermo Scientific) at a ratio of 2:1 T cell to bead or by ova-expressing B16 melanoma cells at a ratio of 10:1 T cell to B16 cell. Carboxyfluorescein succinimidyl ester (CFSE, BioLegend) or cell trace violet (CTV, Thermo Scientific) was used to assess T cell proliferation; the labeling was carried out according to the manufacturer's recommendations. Mouse TGFβ1 was purchased from Cell Signaling Technologies, and T cell supernatants were analyzed by mouse IFN-γ ELISA MAX™ (BioLegend).

[2] = SD-208 solubility, loading and release from PEG-PLGA nanoparticles; assay type: physicochemical
Description: PLGA-based nanoparticles were prepared using single-emulsion evaporation. PLGA (AP041, acid end-capped, 50:50, 10-15 kDa, Akina) was blended with Mal-PEG-PLGA (AI53, diblock copolymer, 50:50, 5-10 kDa, Akina) at 25% w/w. The polymers were dissolved in 1 mL dichloromethane (Sigma) and added to 6 mL of ice-cold 0.25% PVA (30,000-70,000 g/mol, Sigma) in 50 mM phosphate buffer, pH 5.8. The two phases were emulsified using a sonic probe (Qsonica Q700 with microtip, amplitude 10, 3 s power with 2 s break). […] The emulsion was stirred at room temperature for 3 h to evaporate the dichloromethane and afterwards purified by two wash-spin cycles in PBS at 20,000 g for 10 min. Nanoparticles s were assessed for size distribution using a Zetasizer Nano series ZS90, and drug encapsulation was determined by absorbance at 370 nm.
Encapsulation efficiency and drug release kinetics were analyzed by its absorbance maximum at 370 nm (FIG. 43A).

[3] = SD-208 released from nanoparticles versus free inhibitor in DMSO

| change of encapsulation efficiency by increasing initial loading amount [1] | SMILES | TGFβ-mediated inhibition of T cell proliferation (CD8+ T cells; SD-208 released from nanoparticles versus free SD-208, TGFβ1 2 ng/mL, 72 hours) | granzyme B (CD8+ T cells; [3]) | interferon γ (IFNγ) (CD8+ T cells; [3]) | amount entrapped in PEG-PLGA nanoparticles [2] | water solubility [2] | release from the nanoparticles ([2]; PBS containing 10% serum) |
| --- | --- | --- | --- | --- | --- | --- | --- |
| decrease | N#CC[C@H](C1CCCC1)n1cc(-c2ncnc3[nH]ccc23)cn1 [ruxolitinib] | – | – | – | – | – | – |
| – | Fc1ccc(Cl)cc1-c1nc(Nc2ccncc2)c2nccnc2n1 [SD-208] | reversed in a comparable manner | upregulated to a similar extent as free inhibitor | upregulated to a similar extent as free inhibitor | 20 μg/mg polymer | poorly water soluble | released slowly from the nanoparticles over the course of weeks |
| increase | NS(=O)(=O)NCCNc1nonc1/C(=N/O)Nc1ccc(F)c(Br)c1 [epacadostat] | – | – | – | – | – | – |
